Laboratory results: ChEMBL document CHEMBL1201862, “PubChem BioAssay data set” (2004)
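In this assay, cells in 96-well plates receive the compound at five concentrations for 48 hours. Endpoints are linearly interpolated between the surrounding concentrations. Abbreviation: GI50, concentration required for 50% inhibition of growth.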 Active and inactive are the calls of the source. Cut-off read from the data, not from the text of the source: active = GI50 up to about 1.1 µM and inactive = higher.

Legend:
Assay in all cases: inhibition of tumour cell growth, NCI panel, 48 h
[1] = tested on: SF-268
[2] = tested on: SK-MEL-2
[3] = tested on: 786-0
[4] = tested on: MOLT-4
[5] = tested on: HL-60
[6] = tested on: MDA-MB-435
[7] = tested on: IGROV-1
[8] = tested on: MDA-MB-231
[9] = tested on: DU-145
[10] = tested on: SNB-75
[11] = tested on: EKVX
[12] = tested on: Malme-3M
[13] = tested on: SK-MEL-5
[14] = tested on: KM12
[15] = tested on: UACC-62
[16] = tested on: OVCAR-4
[17] = tested on: SF-295
[18] = tested on: ACHN
[19] = tested on: SK-OV-3
[20] = tested on: Hs-578T

## C=C1CC(c2ccc(OCCCN3C(=O)c4ccccc4C3=O)cc2)OC1=O (stereo not given)
[1]
  GI50: 4.32 µM (inactive)
[2]
  GI50: 1.96 µM (inactive)
[3]
  GI50: 1.95 µM (inactive)
[4]
  GI50: 1.52 µM (inactive)
[5]
  GI50: 1.96 µM (inactive)
[6]
  GI50: 2.52 µM (inactive)
[7]
  GI50: 1.06 µM (active)
[8]
  GI50: 3.95 µM (inactive)
[9]
  GI50: 4.75 µM (inactive)
[10]
  GI50: 10.6 µM (inactive)
[11]
  GI50: 3.9 µM (inactive)
[12]
  GI50: 2.54 µM (inactive)
[13]
  GI50: 6.64 µM (inactive)
[14]
  GI50: 3.83 µM (inactive)
[15]
  GI50: 1.97 µM (inactive)
[16]
  GI50: 2.45 µM (inactive)
[17]
  GI50: 10.5 µM (inactive)
[18]
  GI50: 4.19 µM (inactive)
[19]
  GI50: 14.4 µM (inactive)
[20]
  GI50: 5.31 µM (inactive)

## O=C(O)C1CCCCC1c1c2ccc(=O)cc-2oc2cc(O)ccc12 (stereo not given)
[1]
  GI50: 33.7 µM (inactive)
[2]
  GI50: 29.4 µM (inactive)
[3]
  GI50: 32.1 µM (inactive)
[4]
  GI50: 23.8 µM (inactive)
[5]
  GI50: 54.6 µM (inactive)
[6]
  GI50: 13.4 µM (inactive)
[7]
  GI50: 12.9 µM (inactive)
[8]
  GI50: 30.8 µM (inactive)
[9]
  GI50: 26.5 µM (inactive)
[10]
  GI50: 25.1 µM (inactive)
[11]
  GI50: 33.5 µM (inactive)
[12]
  GI50: 29.7 µM (inactive)
[13]
  GI50: 36.2 µM (inactive)
[14]
  GI50: 19.9 µM (inactive)
[15]
  GI50: 25.9 µM (inactive)
[16]
  GI50: 23.1 µM (inactive)
[17]
  GI50: 31.7 µM (inactive)
[18]
  GI50: 31.8 µM (inactive)
[19]
  GI50: 32.1 µM (inactive)
[20]
  GI50: 34.8 µM (inactive)

## Cn1ccnc1Sc1ccc(/C=N\NC(=O)c2cccc(F)c2)cc1[N+](=O)[O-]
[1]
  GI50: 24 µM (inactive)
[2]
  GI50: 30.8 µM (inactive)
[3]
  GI50: 31.9 µM (inactive)
[4]
  GI50: > 100 µM (inactive)
[5]
  GI50: > 100 µM (inactive)
[6]
  GI50: 61.1 µM (inactive)
[7]
  GI50: 18.8 µM (inactive)
[8]
  GI50: 80.2 µM (inactive)
[9]
  GI50: 71.6 µM (inactive)
[10]
  GI50: 27 µM (inactive)
[11]
  GI50: 45.1 µM (inactive)
[12]
  GI50: > 100 µM (inactive)
[13]
  GI50: 56.4 µM (inactive)
[14]
  GI50: > 100 µM (inactive)
[15]
  GI50: 89.1 µM (inactive)
[16]
  GI50: 25.3 µM (inactive)
[17]
  GI50: 35.9 µM (inactive)
[18]
  GI50: > 100 µM (inactive)
[19]
  GI50: 33.5 µM (inactive)
[20]
  GI50: 24.2 µM (inactive)

## CCCCN1C(=O)C[C@H]2[C@@H]3CCc4cc(OCCN5CCCC5)ccc4[C@H]3CC[C@]2(C)C1=O
[1]
  GI50: 12.9 µM (inactive)
[2]
  GI50: 4.67 µM (inactive)
[3]
  GI50: 2.88 µM (inactive)
[4]
  GI50: 2.65 µM (inactive)
[5]
  GI50: 7.1 µM (inactive)
[6]
  GI50: 6.31 µM (inactive)
[7]
  GI50: 15.7 µM (inactive)
[8]
  GI50: 4.71 µM (inactive)
[9]
  GI50: 13.9 µM (inactive)
[10]
  GI50: 3.4 µM (inactive)
[11]
  GI50: 14.5 µM (inactive)
[12]
  GI50: 3.89 µM (inactive)
[13]
  GI50: 5.94 µM (inactive)
[14]
  GI50: 7.94 µM (inactive)
[15]
  GI50: 3.72 µM (inactive)
[16]
  GI50: 14.1 µM (inactive)
[17]
  GI50: 3.9 µM (inactive)
[18]
  GI50: 12.9 µM (inactive)
[19]
  GI50: 13.9 µM (inactive)
[20]
  GI50: 13.2 µM (inactive)

## O=C(NCC1Nc2ccncc2S(=O)(=O)N1)c1ccc(Br)cc1 (stereo not given)
[1]
  GI50: 27.4 µM (inactive)
[2]
  GI50: 14.9 µM (inactive)
[3]
  GI50: > 100 µM (inactive)
[4]
  GI50: 46.2 µM (inactive)
[5]
  GI50: 30.1 µM (inactive)
[6]
  GI50: 19.6 µM (inactive)
[7]
  GI50: 80.5 µM (inactive)
[8]
  GI50: 20.1 µM (inactive)
[9]
  GI50: 77.6 µM (inactive)
[10]
  GI50: 73.6 µM (inactive)
[11]
  GI50: > 100 µM (inactive)
[12]
  GI50: 28.8 µM (inactive)
[13]
  GI50: > 100 µM (inactive)
[14]
  GI50: 40.6 µM (inactive)
[15]
  GI50: 58.7 µM (inactive)
[16]
  GI50: 64.6 µM (inactive)
[17]
  GI50: > 100 µM (inactive)
[18]
  GI50: > 100 µM (inactive)
[19]
  GI50: > 100 µM (inactive)
[20]
  GI50: 32.2 µM (inactive)
